Assay results taken from patent publication US20230123334A1, “AMINO LIPID COMPOUND, PREPARATION METHOD THEREFOR, AND APPLICATION THEREOF” (SHENZHEN SHENXIN BIOTECHNOLOGY CO., LTD., priority 2020, published 2023).

These compounds were tested on HEK293 cells (assay: Preliminary screening as mRNA vectors, EGFP mRNA transfection of HEK293 cells). Conditions: EGFP mRNA 50 ng per well, 96-well plates; percentage of GFP fluorescent cells relative to total number of cells (Hoechst).
Assay type: cell-based
How it was run: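 Each well of HEK293 cells received 50 ng of EGFP mRNA. Efficiency was expressed as percent GFP-expressing cells over Hoechst-defined total cell number.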

Compound	Absolute mRNA transfection efficiency in HEK293 cells [%]
CCCCCCCCCCCCCCCCCCSc1nc(NCCCCCCC)nc(NCC2CCN(C)CC2)n1 [Compound D10S18N7]	45.8
CCCCCCCCCCCNc1nc(NCCN2CCOCC2)nc(SCCCCCCCCCCC)n1 [Compound D2S11N11]	0.6
CCCCCCCSc1nc(NCCN2CCCCC2)nc(SCCCCCCC)n1 [Compound D4S7S7]	13.5
CCCCCCCCCCCNc1nc(NCCN2CCCC2)nc(SCCCCCCCC)n1 [Compound D3S8N11]	6.6
CCCCCCCCCCCCCCCCSc1nc(NCCCCCC)nc(NCCN(C)C)n1 [Compound D1S16N6]	54.2
CCCCCCCCCCCCNc1nc(NCCCN(C)C)nc(SCCCCCCCCC)n1 [Compound D6S9N12]	39.3
CCCCCCCCCCCCCCCCNc1nc(NCCCN(C)C)nc(SCCCCCCCCCCC)n1 [Compound D6S11N16]	6.2
CCCCCCNc1nc(NCCCN2CCN(C)CC2)nc(SCCCCCC)n1 [Compound D9S6N6]	1.5
CCCCCCCCCCCCCCSc1nc(NCC2CCN(C)CC2)nc(SCCCCCCC)n1 [Compound D10S7S14]	88.7
CCCCCCCCCCCCCCCSc1nc(NCCCCCC)nc(NCCCN2CCOCC2)n1 [Compound D8S15N6]	3.5
CCCCCCCCCCCCCCCNc1nc(NCC2CCN(C)CC2)nc(SCCCCCCCCCCCCCC)n1 [Compound D10S14N15]	3.3
CCCCCCSc1nc(NCCN2CCOCC2)nc(SCCCCCC)n1 [Compound D2S6S6]	2.2
CCCCCCCCCCCCCCCCNc1nc(NCCN(C)C)nc(SCCCCCCCCCCC)n1 [Compound D1S11N16]	13.0
CCCCCCCCCCCNc1nc(NCCN2CCOCC2)nc(SCCCCCCCC)n1 [Compound D2S8N11]	8.1
CCCCCCCCCCCCCCCCCCSc1nc(NCCCCCCCCCCC)nc(NCCCN2CCN(C)CC2)n1 [Compound D9S18N11]	4.3
CCCCCCCCCCCCCCCSc1nc(NCCN2CCCC2)nc(SCCCCCC)n1 [Compound D3S6S15]	12.0
CCCCCCCCCCCCCNc1nc(NCCN2CCOCC2)nc(SCCCCCCC)n1 [Compound D2S7N13]	6.2
CCCCCCCCCCCCSc1nc(NCCCCCC)nc(NCCCN(C)C)n1 [Compound D6S12N6]	1.1
CCCCCCCCCCCNc1nc(NCCCN2CCN(C)CC2)nc(SCCCCCCCCC)n1 [Compound D9S9N11]	49.2
CCCCCCCCCCCCCCCCNc1nc(NCCCN(C)C)nc(SCCCCCCCCCCCCCCC)n1 [Compound D6S15N16]	0.2
CCCCCCCCCCCCNc1nc(NCCCN2CCN(C)CC2)nc(SCCCCCCCCCCC)n1 [Compound D9S11N12]	21.7
CCCCCCCCCCCCCCCNc1nc(NCCN2CCCCC2)nc(SCCCCCCCCCCCCCCC)n1 [Compound D4S15N15]	3.5
CCCCCCCCCCCCCNc1nc(NCCN2CCCC2)nc(SCCCCCCCCCC)n1 [Compound D3S10N13]	35.0

Compound	Absolute mRNA transfection efficiency in HEK293 cells [%]
CCCCCCCCCCCCCCCCSc1nc(NCCN2CCOCC2)nc(SCCCCCC)n1 [Compound D2S6S16]	16.0
CCCCCCCCCCCCCCCCNc1nc(NCCN2CCCC2)nc(SCCCCCCCCC)n1 [Compound D3S9N16]	50.3
CCCCCCCCCCCCSc1nc(NCCCCCCC)nc(NCCCN2CCN(C)CC2)n1 [Compound D9S12N7]	0.6
CCCCCCCCCCCCCCCCCCNc1nc(NCCN(C)C)nc(SCCCCCCCCCCCCCCCCCC)n1 [Compound D1S18N18]	0.0
CCCCCCCCCCCCSc1nc(NCCCCCCCCC)nc(NCCN2CCCCC2)n1 [Compound D4S12N9]	0.7
CCCCCCCCCCCCCCCCCCNc1nc(NCCCN2CCN(C)CC2)nc(SCCCCCC)n1 [Compound D9S6N18]	24.0
CCCCCCCCNc1nc(NCCN(C)C)nc(SCCCCCCCC)n1 [Compound D1S8N8]	5.8
CCCCCCCCNc1nc(NCCCN2CCN(C)CC2)nc(SCCCCCCC)n1 [Compound D9S7N8]	1.7
CCCCCCCCCCCCCCCCNc1nc(NCCN2CCOCC2)nc(SCCCCCCCCCCCCCCC)n1 [Compound D2S15N16]	1.4
CCCCCCCCCCCCCCCCNc1nc(NCCN(C)C)nc(SCCCCCCCCC)n1 [Compound D1S9N16]	25.6
CCCCCCCCNc1nc(NCCCN(C)C)nc(SCCCCCCC)n1 [Compound D6S7N8]	2.8
CCCCCCCCCCCCCNc1nc(NCCN(C)C)nc(SCCCCCCCCCCC)n1 [Compound D1S11N13]	12.6
CCCCCCCCCCCCCCCCCCNc1nc(NCCCN2CCOCC2)nc(SCCCCCCC)n1 [Compound D8S7N18]	3.0
CCCCCCCCCCCCCCCCCCSc1nc(NCCCCCCCC)nc(NCCN2CCCC2)n1 [Compound D3S18N8]	93.3
CCCCCCCCCCCCCNc1nc(NCCCN2CCN(C)CC2)nc(SCCCCCCCCCCC)n1 [Compound D9S11N13]	9.4
CCCCCCCCCCCCCCCSc1nc(NCCCCCCCCC)nc(NCCN2CCCCC2)n1 [Compound D4S15N9]	1.8
CCCCCCCCCCCCCCSc1nc(NCCCCCCCCCCCC)nc(NCCCN(C)C)n1 [Compound D6S14N12]	17.0
CCCCCCCCCCCCN(CCCCCCCCCCCC)c1nc(NCCN2CCCC2)nc(SCCCCCCCCC)n1 [D3S9^2N12]	1.3
CCCCCCCCCCCCCCCCCCNc1nc(NCC2CCN(C)CC2)nc(SCCCCCCCCC)n1 [Compound D10S9N18]	22.4
CCCCCCCCCCCCCCCCNc1nc(NCCN2CCOCC2)nc(SCCCCCCC)n1 [Compound D2S7N16]	2.6
CCCCCCCCCCCCCCCNc1nc(NCCN2CCOCC2)nc(SCCCCCCCCCCCC)n1 [Compound D2S12N15]	0.0
CCCCCCCCCCCCCNc1nc(NCCCN(C)C)nc(SCCCCCCCC)n1 [Compound D6S8N13]	58.0
CCCCCCCCCCCCCCCCCCNc1nc(NCCN2CCN(C)CC2)nc(SCCCCCCCCCCCCCCCCCC)n1 [Compound D5S18N18]	0.0

Compound	Absolute mRNA transfection efficiency in HEK293 cells [%]
CCCCCCCCCCCNc1nc(NCC2CCN(C)CC2)nc(SCCCCCCCCCCC)n1 [Compound D10S11N11]	27.7
CCCCCCCCCCCNc1nc(NCCN2CCOCC2)nc(SCCCCCCCCCC)n1 [Compound D2S10N11]	0.2
CCCCCCCCCCCCNc1nc(NCCN2CCN(C)CC2)nc(SCCCCCCCCCCC)n1 [Compound D5S11N12]	22.8
CCCCCCCCCCCCCCCCNc1nc(NCCN2CCCCC2)nc(SCCCCCCC)n1 [Compound D4S7N16]	1.3
CCCCCCCCSc1nc(NCCN2CCN(C)CC2)nc(SCCCCCCC)n1 [Compound D5S7S8]	16.6
CCCCCCCCCCCCCCCNc1nc(NCC2CCN(C)CC2)nc(SCCCCCCCCCCCC)n1 [Compound D10S12N15]	4.1
CCCCCCCCCCCCCNc1nc(NCCN2CCN(C)CC2)nc(SCCCCCCCC)n1 [Compound D5S8N13]	44.2
CCCCCCCCCCSc1nc(NCCCCCCCCC)nc(NCCCN2CCOCC2)n1 [Compound D8S10N9]	0.1
CCCCCCCNc1nc(NCCCN2CCOCC2)nc(SCCCCCC)n1 [Compound D8S6N7]	0.4
CCCCCCCCCCCSc1nc(NCCCCCC)nc(NCCN(CC)CC)n1 [Compound D7S11N6]	4.3
CCCCCCCCCCCCCNc1nc(NCCN(CC)CC)nc(SCCCCCCC)n1 [Compound D7S7N13]	1.2
CCCCCCCCCCSc1nc(NCCN2CCCC2)nc(SCCCCCC)n1 [Compound D3S6S10]	2.5
CCCCCCCCCSc1nc(NCCCCCC)nc(NCCN2CCCCC2)n1 [Compound D4S9N6]	0.3
CCCCCCCCCCCCCCCCSc1nc(NCCCCCCCC)nc(NCCN2CCCCC2)n1 [Compound D4S16N8]	1.3
CCCCCCCCCCCCCCSc1nc(NCCN(CC)CC)nc(SCCCCCCC)n1 [Compound D7S7S14]	4.1
CCCCCCCCCCCCCCCCNc1nc(NCCN(CC)CC)nc(SCCCCCCCC)n1 [Compound D7S8N16]	16.8
CCCCCCCCCCCCCCCCCCSc1nc(NCCCCCCC)nc(NCCN(CC)CC)n1 [Compound D7S18N7]	6.5
CCCCCCCCCCCCCCCCCCNc1nc(NCCCN(C)C)nc(SCCCCCCCCCCCCCCC)n1 [Compound D6S15N18]	1.9
CCCCCCCCCCCCCCCCCCSc1nc(NCCN2CCCCC2)nc(SCCCCCC)n1 [Compound D4S6S18]	8.8
CCCCCCCCCCCCCCCCNc1nc(NCC2CCN(C)CC2)nc(SCCCCCCCCCCCC)n1 [Compound D10S12N16]	3.4
CCCCCCCCCCCCN(CCCCCCCCCCCC)c1nc(NCCN(C)C)nc(SCCCCCCCCCCC)n1 [D1S11^2N12]	0.0
